Measured values from patent US4863741A, “Tablet composition for drug combinations” (Abbott Laboratories, priority 1989, dated 1989).
Like-named read-outs stand apart in the source and are kept apart here.

Assay type: physicochemical
Details: for t90 (time required for 10% destruction of erythromycin activity): 25° C.; for t50 (time required for 50% destruction of erythromycin activity): water
Method: To evaluate the feasibility of a single, non-enteric coated preparation containing erythromycin, the times required for 50% destruction of erythromycin activity t50) and 10% destruction of erythromycin activity t90) in aqueous solution at 25° C. were calculated as a function of pH from data reported in the literature.

## CC[C@H]1OC(=O)[C@H](C)[C@@H](O[C@H]2C[C@@](C)(OC)[C@@H](O)[C@H](C)O2)[C@H](C)[C@@H](O[C@@H]2O[C@H](C)C[C@H](N(C)C)[C@H]2O)[C@](C)(O)C[C@@H](C)C(=O)[C@H](C)[C@@H](O)[C@]1(C)O [erythromycin]
pH 3.0, aqueous solution
  t90 (time required for 10% destruction of erythromycin activity): 1.52 min
pH 3.5, aqueous solution
  t90 (time required for 10% destruction of erythromycin activity): 528 min
pH 4.0, aqueous solution
  t90 (time required for 10% destruction of erythromycin activity): 15.2 min
pH 4.5, aqueous solution
  t90 (time required for 10% destruction of erythromycin activity): 52.8 min
pH 5.0, aqueous solution
  t90 (time required for 10% destruction of erythromycin activity): 152 min
pH 5.5, aqueous solution
  t90 (time required for 10% destruction of erythromycin activity): 528 min
pH 6.0, aqueous solution
  t90 (time required for 10% destruction of erythromycin activity): 1530 min
pH 3
  t50 (time required for 50% destruction of erythromycin activity): 0.167 h
pH 3.5
  t50 (time required for 50% destruction of erythromycin activity): 0.578 h
pH 4
  t50 (time required for 50% destruction of erythromycin activity): 1.67 h
pH 4.5
  t50 (time required for 50% destruction of erythromycin activity): 5.79 h
pH 5
  t50 (time required for 50% destruction of erythromycin activity): 16.7 h
pH 5.5
  t50 (time required for 50% destruction of erythromycin activity): 57.8 h
pH 6
  t50 (time required for 50% destruction of erythromycin activity): 167 h
